In patent US8877261B2, “Anti-redness active agent and cosmetic compositions comprising same” (Laboratoires Expanscience, priority 2011, dated 2014):
Marks after values point to notes of the source that are not given here.

Assays:
cathelicidin (LL37) = assay: Gene expression of cathelicidin (LL37) induced by calcitriol in keratinocytes (real-time PCR); type: cell-based, human; conditions: for Mean ΔCt (CtLL37 − CtGAPDH) / LL37 expression (relative quantity) / ΔΔCt (LL37) / Percentage of inhibition (LL37 expression): NHEK, 24 hours, ARG 0.2%, LUP 0.02%; for Mean ΔCt (CtLL37 − CtGAPDH) / LL37 expression (relative quantity) / ΔΔCt (LL37): with calcitriol; for Mean ΔCt (CtLL37 − CtGAPDH): alone or in combination; for LL37 expression (relative quantity): control cells = 1.00; for ΔΔCt (LL37): ΔCtcontrol−ΔCttreated; for Percentage of inhibition (LL37 expression): versus calcitriol stimulated control
Description: (§1) Normal human epidermal keratinocytes (NHEK) were cultured in differentiation culture medium supplemented with Ca^++. […] At the end of the treatment, the culture supernatants were removed and total RNA was extracted, analyzed and assayed. The neo-synthesized cDNA relating to the genes of interest (LL37 and KLK5) or to the reference genes were amplified selectively by iQ5 real-time PCR (Biorad) using SybrGreen technology. […] By calculating ΔCt (Ctgene of interest−Ctreference gene) and ΔΔCt (ΔCtcontrol−ΔCttreated) the relative quantity of the gene of interest was measured: […] The significance of the results was verified for the ΔCt values by a single-factor analysis of variance followed by a Tukey's test. The percentage of inhibition of the expression of LL37 and KLK5 is thus calculated: [(RQ(stim calcitriol)−RQ(active treatment))/RQ(stim calcitriol)]*100 Results

VEGF = assay: Gene expression of VEGF by keratinocytes (real-time PCR); type: cell-based, human; conditions: NHEK; for Percentage of inhibition (VEGF expression): versus control cells
Description: Normal human epidermal keratinocytes (NHEK) were incubated in the presence of the complex of arabinogalactan (ARG)/lupin peptides (LUP) active agents at concentrations of 0.2%/0.02% alone or in combination.
At the end of the treatment, the culture supernatants were removed and total RNA was extracted, analyzed and assayed. The neo-synthesized cDNA relating to the genes of interest (VEGF, FGF2, HIF1α, THBS1) or to the reference genes were amplified selectively by iQ5 real-time PCR (Biorad) using SybrGreen technology.
(§2) By calculating ΔCt (Ctgene of interest−Ctreference gene) and ΔΔCt (ΔCtcontrol−ΔCttreated) the relative quantity of the gene of interest was measured: RQ=(1+E)^ΔΔCt; when E (effectiveness) is equal to 1, then RQ=2^ΔΔCt.
The significance of the results was verified for the ΔCt values by a single-factor analysis of variance followed by a Dunnett's test.
The percentage of inhibition is calculated for VEGF, FGF2 and HIF1α: [(RQ(control)−RQ(active treatment))/RQ (control)]*100

[1] = test system: Normal human dermal microvascular endothelial cells; assay: Proliferation of endothelial cells in the presence of VEGF (PNPP viability); type: cell-based; conditions: for T24 h - %/control (without VEGF) T0 / Percentage of inhibition 24 h (proliferation induced by VEGF): 24 hours; for T24 h - %/control (without VEGF) T0 / T48 h - %/control (without VEGF) T0: in the presence of VEGF, PNPP signal, mean±standard deviation; for T24 h - %/control (without VEGF) T0 / Percentage of inhibition 24 h (proliferation induced by VEGF) / T48 h - %/control (without VEGF) T0 / Percentage of inhibition 48 h (proliferation induced by VEGF): ARG 0.2%, LUP 0.02%; for Percentage of inhibition 24 h (proliferation induced by VEGF) / Percentage of inhibition 48 h (proliferation induced by VEGF): alone or in combination; for T48 h - %/control (without VEGF) T0 / Percentage of inhibition 48 h (proliferation induced by VEGF): 48 hours; for stimulation of the growth of endothelial cells in relation to control cells: VEGF, p<0.01
Description: Normal human dermal microvascular endothelial cells were incubated for 24 or 48 hours in the absence (control) or in the presence of the arabinogalactan (ARG)/lupin peptides (LUP) active agents at concentrations of 0.2%/0.02% alone or in combination and in the presence of vascular endothelial growth factor (VEGF), the reference activator. At the end of incubation, the viability of the cells was evaluated by a spectrophotometric method: P-nitrophenyl phosphate (PNPP) is transformed into p-nitrophenol by phosphatases of viable cells and the absorbance at 405 nm of p-nitrophenol is directly proportional to the number of viable cells.
The results are expressed as the percentage of the “PNPP” signal of the control without VEGF at TO (mean±standard deviation).
The statistical significance of the differences between the “VEGF stimulated cells” and “VEGF+active agents” conditions was evaluated by a single-factor analysis of variance followed by a Holm-Sidak test.
The percentage of inhibition of proliferation is calculated according to the following equation: [(active treatment)−(VEGF stimulated)/(control without VEGF)−(VEGF stim)]*100 Results

kallikrein-5 (KLK5) = assay: Gene expression of kallikrein-5 (KLK5) induced by calcitriol in keratinocytes (real-time PCR); type: cell-based, human
Description: as §1

interleukin-8 (IL8) = assay: Release of IL8 by keratinocytes induced by PMA (ELISA); type: cell-based, human; conditions: dexamethasone 10^−7 M, ARG 0.2% + LUP 0.02%
Description: Human keratinocytes (NCTC 2544 cell line) were preincubated for 24 hours with the arabinogalactan (ARG)/lupin peptides (LUP) active agents at concentrations of 0.2%/0.02% or with the reference molecule, dexamethasone.
Inflammation was then induced by treatment with PMA for 24 hours, always in the presence of the active agents or the reference molecule.
At the end of incubation, the quantities of interleukin-8 (IL8) present in the culture supernatants were measured by ELISA.
The significance of the results was verified by a single-factor analysis of variance followed by a Tukey's test.
The percentage of inhibition is calculated according to the following formula: [(stimulated PMA)−(active treatment)/(stimulated PMA)]*100 Results (Table 10)

MMP9 = assay: Gene expression of MMP9 in keratinocytes induced by PMA (real-time PCR); type: cell-based, human; conditions: NHEK, total 40 hours
Description: The effect of the active agents was sought in a basal condition (to study MMP2) or in a preventive manner on a cell layer having been subjected to inflammatory stress induced by PMA (for MMP9).
Normal human epidermal keratinocytes (NHEK) were preincubated for 24 hours in the presence of the arabinogalactan (ARG)/lupin peptides (LUP) active agents at concentrations of 0.2%/0.02%. PMA was then added for a total treatment period of 40 hours.
At the end of the treatment, the culture supernatants were removed and total RNA was extracted, analyzed and assayed. The neo-synthesized cDNA relating to the genes of interest (MMP2, MMP9) or to the reference genes were amplified selectively by iQ5 real-time PCR (Biorad) using SybrGreen technology.
as §2
The significance of the results was verified for the ΔCt values by a single-factor analysis of variance followed by a Dunnett's test (for MMP2) or a Tukey's test (for MMP9).
The percentage of inhibition is thus calculated for MMP9: [(RQ(PMA stimulated)−RQ(active treatment))/RQ(PMA stimulated)]*100 Results

[2] = calcitriol versus control cells, p<0.001
[3] = NCTC 2544 keratinocytes, 24 hours preincubation then PMA 24 hours, culture supernatants

arabinogalactan [ARG]
Mean ΔCt (CtLL37 − CtGAPDH) (cathelicidin (LL37)): 11.31
LL37 expression (relative quantity) (cathelicidin (LL37)): 7.46 *
ΔΔCt (LL37) (cathelicidin (LL37)): 2.9
Percentage of inhibition (LL37 expression) (cathelicidin (LL37)): 18.2%
Percentage of inhibition (LL37 expression) (cathelicidin (LL37); listed as Arabinogalactan): 18%
Mean ΔCt (CtVEGF − CtGAPDH) (VEGF; ARG 0.2%, LUP 0.02%, alone or in combination): 9.03
VEGF expression (relative quantity) (VEGF; control cells = 1): 0.707 **
ΔΔCt (VEGF) (VEGF; ΔCtcontrol−ΔCttreated): −0.5
Percentage of inhibition (VEGF expression) (VEGF; ARG 0.2%, LUP 0.02%): 29.3%
Percentage of inhibition (VEGF expression) (VEGF; ARG 0.2%, LUP 0.02%, listed as Arabinogalactan): 29%
T24 h - %/control (without VEGF) T0 [1]: 204.7 ± 7.1%
Percentage of inhibition 24 h (proliferation induced by VEGF) [1]: 17.03%
Percentage of inhibition 24 h (proliferation induced by VEGF) ([1]; listed as arabinogalactan): 17%
T48 h - %/control (without VEGF) T0 [1]: 252.9 ± 6^ %
Percentage of inhibition 48 h (proliferation induced by VEGF) [1]: 9.71%
Percentage of inhibition 48 h (proliferation induced by VEGF) ([1]; listed as arabinogalactan): ~10%

C=C1/C(=C\C=C2/CCC[C@]3(C)[C@@H]([C@H](C)CCCC(C)(C)O)CC[C@@H]23)C[C@@H](O)C[C@@H]1O [calcitriol]
Mean ΔCt (CtLL37 − CtGAPDH) (cathelicidin (LL37)): 11.02
LL37 expression (relative quantity) (cathelicidin (LL37)): 9.12 $$$
ΔΔCt (LL37) (cathelicidin (LL37)): 3.19
stimulation of the gene expression of LL37 by keratinocytes (cathelicidin (LL37); [2]): 812%
Mean ΔCt (CtKLK5 − CtGAPDH) (kallikrein-5 (KLK5); NHEK, 24 hours, with calcitriol, ARG 0.2% + LUP 0.02%): 2.46
KLK5 expression (relative quantity) (kallikrein-5 (KLK5); NHEK, 24 hours, with calcitriol, control cells = 1.00): 2.49 $$$
ΔΔCt (KLK5) (kallikrein-5 (KLK5); NHEK, 24 hours, with calcitriol, ΔCtcontrol−ΔCttreated): 1.32
stimulation of the gene expression of kallikrein-5 by keratinocytes (kallikrein-5 (KLK5); [2]): 149%

C[C@@H]1C[C@H]2[C@@H]3CCC4=CC(=O)C=C[C@]4(C)[C@@]3(F)[C@@H](O)C[C@]2(C)[C@@]1(O)C(=O)CO [Dexamethasone, dexamethasone]
inhibition at 0.1 µM (interleukin-8 (IL8); Homo sapiens, NCTC-2544, versus PMA stimulated control, NCTC 2544, read-out: percentage of inhibition of IL8 release induced by PMA): 81%
IL8 (interleukin-8 (IL8); [3]): 5.967 ± 0.203 ng/mL
percentage of inhibition of IL8 release induced by PMA (interleukin-8 (IL8); versus PMA stimulated control, NCTC 2544): 80.5%

CCCCCCCCCCCCCC(=O)O[C@@H]1[C@@H](C)[C@@]2(O)[C@@H](C=C(CO)C[C@]3(O)C(=O)C(C)=C[C@@H]23)[C@@H]2C(C)(C)[C@]12OC(C)=O [PMA]
IL8 (ng/ml) (interleukin-8 (IL8); [3]): 30.60 ± 1.888 $$$ ng/ml
ΔΔCt (MMP9) (MMP9; PMA stimulated): 6.55
MMP9 expression (relative quantity) (MMP9; PMA stimulated, control cells = 1): 93.70 $$$
Mean ΔCt (CtMMP9 − CtGAPDH) (MMP9; preincubated 24 hours, then PMA, ARG 0.2% + LUP 0.02%): 2.32

VEGF
T24 h - %/control (without VEGF) T0 [1]: 213.2 ± 10.8%
T48 h - %/control (without VEGF) T0 [1]: 262.6 ± 5^ %
stimulation of the growth of endothelial cells in relation to control cells ([1]; after 24 hours of incubation): 78.9%
stimulation of the growth of endothelial cells in relation to control cells ([1]; after 48 hours of incubation): 159%
